Marks after values point to notes of the source that are not given here.

In one assay the test system is paclitaxel-treated rats. As to the kind of experiment: Paclitaxel-induced peripheral sensory neuropathy model, hyperalgesia (paw pressure) after i.v. administration. It counts as in vivo, rat. The source says:
(§1) Results are expressed as the minimum dose (via the indicated route) at which a statistically-significant difference is observed when compared to time-matched injured rats receiving a vehicle administration by the same route. An analysis of variance, ANOVA, followed by Fisher's protected least significant difference procedure for post hoc comparison, was used to verify significance between two means of hyperalgesic behavioral results from the Randall & Selitto apparatus paw pressure test (“anti-hyperalgesia”) or from the Von Frey test (“mechanical allodynia”) or from the Cold Plate test (“cold allodynia”). P values 0.05 were considered significant. This definition applies to any doses specified herein as inhibiting “in a statistically significant manner”.
(§2) Paw mechanical sensitivity was determined using a Randall & Selitto apparatus (Randall and Selitto, 1957) exerting a force that increases at constant rate (32 g/s). The stimulus causing paw withdrawal was evaluated before and at different times after treatment. Results represent the mean of mechanical thresholds for paw withdrawal expressed as grams. To avoid possible damage to the rat paw the maximum applied force was set at 240 g. In the single administration protocol, paw pressure tests were performed before (pre-dose) and at regular intervals after treatment.
Paclitaxel (2 mg/kg i.p.) was administered on days 1, 3, 5 and 8. Test compounds were dissolved in saline and administered intravenously at the dose of 1 mg/kg to adult male Sprague-Dawley rats (Charles River, Italy, 220-250 g weight). Data were obtained at 0-75 minutes after injection and are expressed as the mean±s.e.m. of six animals. *P<0.05 and **<0.01 vs vehicle+paclitaxel treated rats; °P<0.05 and ^°°P<0.01 vs. NT24336 (R) treated group. […] *P<0.05 and **<0.01 vss vehicle+paclitaxel treated rats.

For the next assay, the system named is scopolamine-treated mice. The note with it: s.c., passive avoidance, cited from earlier work; for Amnesia reversal, %: at the lowest significant dose.
Assay [1] has as its system streptozotocin-treated mice. Description: Streptozotocin diabetic peripheral neuropathy model, thermal hyperalgesia after oral administration. It counts as in vivo, mouse. The note with it: p.o.
Description: as §1
Mice (=30 g) were injected intravenously in the tail with 200 mg/kg streptozotocin (Wako Pure Chemicals, Richmond, Va.) prepared in saline adjusted to pH 4.5 in 0.1 N citrate buffer. Age-matched non-diabetic control mice were injected with the vehicle alone. Streptozotocin solutions were freshly prepared due to the limited stability of the compound. Animals were kept in a group of four per cage with special care of food and water supplement. The bed of the cage was changed every day. […] The serum glucose level was measured by glucose oxidase method from blood samples obtained by tail vein pricking. […] Animals at 7 days post-streptozotocin treatment were used in the study. […] Injections were performed using a Hamilton microliter syringe fitted with a 26-gauge needle, according to the method of Haley and McCormick (1957). The site of injection was 2 mm caudal and 2 lateral to the bregma, and 3 mm in depth from the skull surface. The injection volume was 5 μl.

In the next assay the test system is CCI rats. As to the kind of experiment: Chronic constriction injury (CCI) model, mechanical allodynia after oral administration. It counts as in vivo, rat. Conditions: p.o.
Description: as §1
Each animal was placed in a chamber with a mesh metal floor covered by a plastic dome that enabled the animal to walk freely, but not to jump. The mechanical stimulus was then delivered in the mid-plantar skin of left hind paw using an electronic von Frey apparatus (37400 Dynamic Plantar Aesthesiometer, Ugo Basile, Comerio, Varese, Italy). The cut-off was set at 50 g, while the increasing force rate (ramp duration) was set at 20 s. In the single administration protocol, pain threshold measurements have been performed before (pre-dose) and at regular intervals after treatment. In the repeated treatment protocol, the pre-test value was measured 13 h after the last administration; afterward the animals received a new administration and measures were performed at the described times. Results are expressed in […] and represent the mean±S.E.M. of mechanical thresholds.
To evaluate the effect of test compounds in comparison to vehicle or selected comparators on mechanical hyperalgesia, the chronic constriction injury models in rats, a widely accepted model of painful neuropathy (Wang and Wang, 2003) was chosen.
Neuropathy was induced according to the procedure described by Bennett and Xie ([…]). Briefly, rats were anaesthetized with chloral hydrate 400 mg/kg i.p. under aseptic conditions, the right common sciatic nerve was exposed at the level of the middle thigh by blunt dissection. Proximal to the trifurcation, the nerve was carefully freed from the surrounding connective tissue and four chromic cat gut ligatures (4-0, Ethicon, Norderstedt, Germany) were tied loosely around it with about 1 mm spacing. After hemostasis was confirmed, the incision was closed in layers. Then animals were allowed to recover from anesthesia and surgery and were kept one per cage with free access to water and standard laboratory chow. This procedure induces the appearance of hyperalgesia and allodynia in response to mechanical stimuli, which are evident 2-5 days after injury and reach their maximum severity in about 14 days.

The next assay has as its system MIA-treated rats. Description: MIA-induced knee osteoarthritis model, mechanical hyperalgesia after i.v. administration. It counts as in vivo, rat.
Description: as §1, §2
A single intra-articular injection of sodium monoiodoacetate (MIA) was introduced into the knee joint of rats according to the method described by Fernihough J et al., 2004. Sodium monoiodoacetate (MIA) inhibits chondrocyte metabolism leading to cartilage degradation in form of osteoarthritic-like focal lesions in the cartilage associated with subchondral bone thickening 14 days after administration (Guingamp et al., 1997). This model therefore can easily and quickly reproduce osteoarthritic-like lesions and functional impairment in rats, similar to that observed in human disease (Guzman et al., 2003). After 7 days post-injection, the inflammatory component subsides and the remaining pain is considered neuropathic in nature. Briefly, rats were deeply anaesthetized with diethyl ether. Following abolition of the hind paw pinch withdrawal reflex, a 27-gauge needle was introduced into the joint cavity between the tibial plateau and femoral condyles. Once in place, 2 mg of MIA were diluted in a volume of […] of 1% CMC (carboxymethylcellulose in water, Sigma-Aldrich, Italy) and injected into one knee joint and the rat was allowed to recover for 14 days prior to pain assessment.

As for `O=C1CCC2CN(S(=O)(=O)c3ccc(F)cc3)CCN12` (racemic) [NT-24617, (RS)-2-[(4-fluorophenyl)sulfonyl]hexahydropyrrolo[1,2-a]pyrazin-6-one], the “Lowest dose at which paclitaxel-induced hyperalgesia is inhibited in a statistically significant manner (P < 0.05)” value is 3* mg/kg in the assay on paclitaxel-treated rats (15 min after administration), 3 mg/kg in the assay on paclitaxel-treated rats (30 min after administration), 3 mg/kg in the assay on paclitaxel-treated rats (45 min after administration) and more than 3 mg/kg in the assay on paclitaxel-treated rats (60 min after administration). Further, the “Amnesia reversal, %” value with scopolamine-treated mice is recorded as 100%. Also, in the assay with scopolamine-treated mice, the “Lowest Dose at which scopolamine-induced amnesia is reversed in a statistically significant manner (P < 0.01)” value was 0.001 mg/kg.
For `CNCC[C@H](Oc1cccc2ccccc12)c1cccs1` [Duloxetine, reference compound], the “Lowest dose at which streptozotocin-induced diabetese-like thermal hyperalgesia is inhibited in a statistically significant manner (P < 0.05)” value in assay [1] (30 min after administration), in assay [1] (60 min after administration), in assay [1] (90 min after administration) and in assay [1] (120 min after administration) was 30 mg/kg in each case.
As to `O=C1CCC2CN(S(=O)(=O)c3ccc(F)cc3)CCN12` (centres unmarked) [NT-24234, 2-(4-fluorophenyl)sulfonyl-hexahydropyrrolo[1,2-a]pyrazin-6(2H)-one], the “Lowest dose at which paclitaxel-induced hyperalgesia is inhibited in a statistically significant manner (P < 0.05)” value in the assay on paclitaxel-treated rats (15 min after administration) is listed as 1 mg/kg; in the assay with paclitaxel-treated rats (30 min after administration), 3 mg/kg; in the assay with paclitaxel-treated rats (45 min after administration), more than 10 mg/kg. Further, in the assay on scopolamine-treated mice, the “Amnesia reversal, %” value was 78%. Moreover, the “Lowest Dose at which scopolamine-induced amnesia is reversed in a statistically significant manner (P < 0.01)” value in the assay on scopolamine-treated mice is 0.003 mg/kg.
As for `O=C1CCC2CN(S(=O)(=O)c3ccc(F)cc3)CCN12` (centres unmarked) [NT-24266, 2-(4-fluorophenyl)sulfonyl-hexahydropyrrolo[1,2-a]pyrazin-6(2H)-one], the “Lowest dose at which paclitaxel-induced hyperalgesia is inhibited in a statistically significant manner (P < 0.05)” value with paclitaxel-treated rats (15 min after administration) is reported as 1 mg/kg; with paclitaxel-treated rats (30 min after administration), 3 mg/kg; with paclitaxel-treated rats (45 min after administration), more than 10 mg/kg. Further, the “Amnesia reversal, %” value with scopolamine-treated mice is recorded as 75%. Also, the “Lowest Dose at which scopolamine-induced amnesia is reversed in a statistically significant manner (P < 0.01)” value in the assay on scopolamine-treated mice was 0.001 mg/kg.
As to `O=C1CCC2CN(S(=O)(=O)c3cccc(F)c3)CCN12` (centres unmarked) [NT-24337, 2-(3-fluorophenyl)sulfonyl-hexahydropyrrolo[1,2-a]pyrazin-6(2H)-one], the figures for the “Lowest dose at which CCI-induced mechanical allodynia is inhibited in a statistically significant manner (P < 0.05)” value with CCI rats (30 min after administration), with CCI rats (60 min after administration) and in the assay with CCI rats (90 min after administration) were 1 mg/kg, 1 mg/kg and 3 mg/kg, respectively. For the same compound, the “Lowest dose at which MIA-induced mechanical hyperalgesia is inhibited in a statistically significant manner (P < 0.05)” value with MIA-treated rats (15 min after administration), with MIA-treated rats (30 min after administration) and with MIA-treated rats (45 min after administration) was 3 mg/kg throughout. In addition, the “Lowest dose at which streptozotocin-induced diabetese-like thermal hyperalgesia is inhibited in a statistically significant manner (P < 0.05)” value in assay [1] (30 min after administration), in assay [1] (60 min after administration) and in assay [1] (90 min after administration) was 10 mg/kg in each case. Besides, the “Lowest dose at which paclitaxel-induced hyperalgesia is inhibited in a statistically significant manner (P < 0.05)” value in the assay on paclitaxel-treated rats (15 min after administration), in the assay on paclitaxel-treated rats (30 min after administration) and in the assay on paclitaxel-treated rats (45 min after administration) was 3 mg/kg in each case.
In the case of `O=C1CCC2CN(S(=O)(=O)c3cccc(F)c3)CCN12` (centres unmarked) [NT-24782, 2-(3-fluorophenyl)sulfonyl-hexahydropyrrolo[1,2-a]pyrazin-6(2H)-one], the “Lowest dose at which paclitaxel-induced hyperalgesia is inhibited in a statistically significant manner (P < 0.05)” value with paclitaxel-treated rats (15 min after administration), with paclitaxel-treated rats (30 min after administration) and with paclitaxel-treated rats (45 min after administration) was more than 3 mg/kg throughout.

(Values after patent US20220047587A1, “SYNERGISTIC COMPOSITIONS COMPRISING R-2-(SUBSTITUTED-SULFONYL)-HEXAHYDRO-PYRROLO[1,2-A]PYRAZIN-6(2H)-ONES AND S-2-(SUBSTITUTED-SULFONYL)-HEXAHYDRO-PYRROLO[1,2-A]PYRAZIN-6(2H)-ONES IN A NON-RACEMIC RATIO” (Metys Pharmaceuticals AG, priority 2018, published 2022).)
